In article PMC8778526, “N-Alkylmorpholines: Potent Dermal and Transdermal Skin Permeation Enhancers” (Pharmaceutics, 2021):
Values after ≈ are worked out from the molar mass of the structure shown. Where two headings read alike, the source gives them in different places.

Columns and labels:
[1] = system: human keratinocytes HaCaT; test: Cytotoxicity, CCK-8 viability assay; type: cell-based; details: read-out: IC50, concentration causing 50% decrease in cell viability, 24 h incubation
Method: Cytotoxicity of the three best enhancers (Mo10, Mo12, Mo14) was evaluated on non-malignant spontaneously immortalised human keratinocytes HaCaT (Cell Lines Service, Eppelheim, Germany). The cell line was cultivated in Dulbecco’s Modified Eagle’s Medium (DMEM, Sigma Aldrich, St. Luis, MO, USA), supplemented with 10% Fetal Bovine Serum (Sigma Aldrich, St. Luis, MO, USA) in a Petri dish at 37 °C in a humidified atmosphere of 5% CO2. Cells were subcultured two times a week. For cytotoxicity experiments, 96-well plates were seeded with cells (at a density of 10,000 cells per well) in 100 μL of culture medium and incubated at 37 °C in a humidified atmosphere of 5% CO2 for 24 h.
The enhancers were dissolved in DMEM, left in an ultrasonic bath for 15 min and then kept at 37 °C overnight. On the next day, 10 μL of the particular enhancer solution was added to 100 μL of cell suspensions, to receive final enhancer concentrations in the range of 0.9–110 μM (concentrations determined according to our preliminary testing). The cells were incubated with tested compounds for 24 h. Then, the cell viability was determined, using the Cell Counting Kit-8 (CCK-8, Sigma Aldrich, St. Luis, MO, USA). The cells were incubated with 10 μL of the CCK-8 for 2 h. Thereafter, absorbance was measured at 450 nm, using the Infinite 200 PRO microplate reader (Tecan Austria GmbH, Austria). The mean optical density (absorbance) was used to calculate the percentage of cell viability as follows: percentage of cell viability=Atreatment−Ablank/Acontrol −Ablank×100 %, where A is the absorbance.

porcine skin [2] = test: Skin electrical impedance measurements; details: 1% enhancer, 48 h; control ratio set to 1
Method: For monitoring the skin integrity and characterisation of the permeation enhancers’ effect, the electrical impedance of each skin was measured, using an LCR 4080 multimeter (Voltcraft, Hirschau, Germany), set in parallel-equivalent mode with an alternating current frequency of 120 Hz. The measurements were carried out according to established protocols. The measurements were performed in the Franz diffusion cells. After the initial hydration and equilibration, the donor compartments were filled with 500 μL of PBS. One wire of the multimeter was placed in PBS in the acceptor, the other in the donor phase and the electrical impedance was determined. The next measurement was taken after the 48 h permeation experiment. When the donor samples ([…]) were removed, they were replaced with 500 μL PBS and the electrical impedance was re-measured. The electrical impedance ratio (EIR) was calculated for each cell as (2) EIR=EI1/EI2 where EI1 [kΩ] is electrical impedance before and EI2 [kΩ] after the 48 h treatment by the donor formulation.

porcine skin [3] = test: ATR-FTIR of enhancer-treated skin; details: skin treated 24 h with 1% enhancer in 60% PG
Method: ATR-FTIR is a powerful method to investigate the interactions of enhancers with SC lipids and proteins. […] Pure distilled water or 60% aqueous PG were applied as controls. […] IR spectra of the skin surface were recorded by an IR spectrometer (Nicolet iZ10, Thermo Scientific, Waltham, MA, USA), equipped with a single reflection […] ZnSe crystal (PIKE Technologies, Madison, WI, USA) at constant clamping pressure. […] Collected spectra were normalised, to reduce potential variations in the overall intensity of the spectra. Selected regions (amide I, amide II and CH2 stretching vibration bands) were fitted in Origin Pro (OriginLab, Wellesley Hills, MA, USA). The position, height and area of these selected peaks were compared among the particular spectra and the variances between peak characteristics were statistically evaluated by GraphPad Prism® software (GraphPad Software, Inc., La Jolla, CA, USA).

porcine skin [4] = test: In vitro permeation experiment, Franz-type diffusion cells; details: for ER, enhancement ratio: flux with/without 1% enhancer; for Jss, steady-state flux of the model drug: control, pure vehicle 60% PG without enhancer
porcine skin [5] = test: Transepidermal water loss (TEWL) measurements, reversibility of enhancer effect; details: for TEWL after the 2 h treatment: 1% enhancer in 60% PG applied 2 h; for TEWL after the 24 h treatment: 1% enhancer in 60% PG applied 24 h; for TEWL after 20 h: after 2 h treatment and enhancer removal; for TEWL within 24 h after the enhancers' removal: after 24 h treatment; for reversibility of the effect on the skin barrier: short-term 2 h application
Method: The reversibility of the enhancers’ effects was studied by evaluation of the difference in the water loss through the intact and enhancer-treated skin. […] The TEWL measurements were carried out according to established protocols. The skin samples were mounted into Franz diffusion cells, with the acceptor compartments filled with PBS pH 7.4 and placed in a water bath at 32 °C to hydrate and equilibrate. At first, the base TEWL values of untreated skin samples were measured. Each of the Franz diffusion cells was removed from the water bath, dried completely with compressed air and inserted into a holder. Then the TEWL probe was placed 1.0 cm above the skin surface. The measuring time was on average 80–100 s. […] The cells were then incubated at 32 °C. The donor samples were removed after 2 h or 24 h and the skin surface was washed with 0.5 mL of PBS, gently blotted dry and thoroughly dried with compressed air. After the enhancer was removed, TEWL was measured at predetermined intervals over 42 or 50 h.

[6] = Effect of enhancers on drug solubility in the donor phase; details: 32 °C, aqueous with cosolvent or surfactant or cyclodextrin, thermodynamic from solid
porcine skin [7] = test: Entrapment of model drug in the skin after the permeation experiment; type: in vitro ADME; details: control without enhancer
Method: At the end of the permeation experiment, the Franz diffusion cells were dismounted and the skin surface was thoroughly washed by distilled water and PBS. The skin area, which was exposed to the donor phase, was cut out, weighed and extracted by 5 mL of the respective mobile phase by shaking for 24 h at 32 °C on a laboratory shaker. The extracts were then filtered through 0.45 µm cellulose filters to eliminate skin residues and analysed by HPLC. Drug concentration in the skin, expressed as mg of model drugs per g of the skin tissue was calculated by dividing permeants’ amounts by the respective skin weights.

[8] = cited from earlier work
[9] = In vitro permeation experiment, Franz-type diffusion cells; details: pig, pH 7.4
[10] = cited from earlier work; remark: listed apart in the source
[11] = ref Drugbank, ALOGPS; cited from earlier work
[12] = donor phase: 60% PG in distilled water without enhancer

CCCCCCCCCCN1CC(CO)OC(OC)C1 (stereo not shown) [Mo10]
IC50 [1]: 94 ± 1.5 µM
EIR, electrical impedance ratio (before/after treatment) (porcine skin [2]): 1.66 ± 0.19
vasCH2, position of asymmetric CH2 stretching vibration (porcine skin [3]): 2921.91 ± 0.40 cm⁻¹
vsCH2, position of symmetric CH2 stretching vibration (porcine skin [3]): 2852.58 ± 0.71 * cm^−1
ER, enhancement ratio (porcine skin [4]; permeant DF): 1.43
ER, enhancement ratio (porcine skin [4]; permeant IND): 7.80
ER, enhancement ratio (porcine skin [4]; permeant TH): 9.87
TEWL after the 2 h treatment (porcine skin [5]): 11.7 ± 0.8 g·m^−2·h^−1
TEWL after the 24 h treatment (porcine skin [5]): 15.6 ± 2.2 g·m^−2·h^−1
TEWL after 20 h (porcine skin [5]): 4.8 ± 0.1 g·m^−2·h^−1
TEWL within 24 h after the enhancers' removal (porcine skin [5]): 4.3 ± 0.7 g·m^−2·h^−1
reversibility of the effect on the skin barrier (porcine skin [5]): reversible

O=C(O)Cc1ccccc1Nc1c(Cl)cccc1Cl [DF, diclofenac sodium]
solubility at 48 h [6, 12]: 57.8 ± 2.55 mg/mL
amount of the model drug in the skin (porcine skin [7]): 380.10 ± 50.52 μg·gskin^−1
solubility in PBS ([8]; ref 27): 5.15 mg/mL
Papp at 48 h [9]: 0.0275 ×10⁻⁶ cm/s
Jss, steady-state flux of the model drug (porcine skin [4]): 5.74 ± 1.04 µg·cm^−2·h^−1

CCCCCCCCCCCCN1CCCCCC1=O [Azone, N-dodecylazacykloheptan-2-on, reference compound]
vasCH2, position of asymmetric CH2 stretching vibration (porcine skin [3]): 2921.84 ± 0.34 cm⁻¹
vsCH2, position of symmetric CH2 stretching vibration (porcine skin [3]): 2851.16 ± 0.21 * cm^−1
IC50 ([10]; ref 57): 49 µM
IC50 ([10]; ref 58): 117 µM

CCCCCCCCN1CC(CO)OC(OC)C1 (stereo not shown) [Mo8]
ER, enhancement ratio (porcine skin [4]; permeant DF): 1.17
ER, enhancement ratio (porcine skin [4]; permeant IND): 6.28
ER, enhancement ratio (porcine skin [4]; permeant TH): 4.63

CCCCCCCCCCCCOC(=O)CCCCCN(C)C [DDAK]
IC50 ([10]; ref 29): 76 µM

CCCCCCCCCCCCCCN1CC(CO)OC(OC)C1 (stereo not shown) [Mo14]
IC50 [1]: 41.5 ± 1.5 µM
EIR, electrical impedance ratio (before/after treatment) (porcine skin [2]): 1.64 ± 0.14
vasCH2, position of asymmetric CH2 stretching vibration (porcine skin [3]): 2919.48 ± 0.42 cm⁻¹
vsCH2, position of symmetric CH2 stretching vibration (porcine skin [3]): 2850.74 ± 0.14 cm⁻¹
ER, enhancement ratio (porcine skin [4]; permeant DF): 2.58
ER, enhancement ratio (porcine skin [4]; permeant IND): 9.10
ER, enhancement ratio (porcine skin [4]; permeant TH): 8.67
TEWL after the 2 h treatment (porcine skin [5]): 9.0 ± 0.4 g·m^−2·h^−1
TEWL after the 24 h treatment (porcine skin [5]): 18.1 ± 0.8 g·m^−2·h^−1
TEWL after 20 h (porcine skin [5]): 4.6 ± 0.7 g·m^−2·h^−1
TEWL within 24 h after the enhancers' removal (porcine skin [5]): 4.7 ± 0.1 g·m^−2·h^−1
reversibility of the effect on the skin barrier (porcine skin [5]): reversible

CCCCCCCCCCCCN1CC(CO)OC(OC)C1 (stereo not shown) [Mo12]
IC50 [1]: 41 ± 0.8 µM
EIR, electrical impedance ratio (before/after treatment) (porcine skin [2]): 1.60 ± 0.13
vasCH2, position of asymmetric CH2 stretching vibration (porcine skin [3]): 2921.14 ± 0.61 cm⁻¹
vsCH2, position of symmetric CH2 stretching vibration (porcine skin [3]): 2851.56 ± 0.23 * cm^−1
ER, enhancement ratio (porcine skin [4]; permeant DF): 1.81
ER, enhancement ratio (porcine skin [4]; permeant IND): 10.01
ER, enhancement ratio (porcine skin [4]; permeant TH): 14.53
TEWL after the 2 h treatment (porcine skin [5]): 8.2 ± 0.3 g·m^−2·h^−1
TEWL after the 24 h treatment (porcine skin [5]): 18.5 ± 1.2 g·m^−2·h^−1
TEWL after 20 h (porcine skin [5]): 3.2 ± 0.3 g·m^−2·h^−1
TEWL within 24 h after the enhancers' removal (porcine skin [5]): 9.5 ± 0.1 g·m^−2·h^−1
reversibility of the effect on the skin barrier (porcine skin [5]): reversible

CCCCN1CC(CO)OC(OC)C1 (stereo not shown) [Mo4]
ER, enhancement ratio (porcine skin [4]; permeant DF): 1.04
ER, enhancement ratio (porcine skin [4]; permeant IND): 5.78
ER, enhancement ratio (porcine skin [4]; permeant TH): 1.38

CCCCCCCCC=CCCCCCCCCN1CC(CO)OC(OC)C1 (stereo not shown) [Mo18/1]
vasCH2, position of asymmetric CH2 stretching vibration (porcine skin [3]): 2920.35 ± 0.36 cm⁻¹
vsCH2, position of symmetric CH2 stretching vibration (porcine skin [3]): 2850.76 ± 0.15 cm⁻¹
ER, enhancement ratio (porcine skin [4]; permeant DF): 1.94
ER, enhancement ratio (porcine skin [4]; permeant IND): 3.94
ER, enhancement ratio (porcine skin [4]; permeant TH): 5.01

dodecyl amino glucoside
IC50 ([10]; ref 34): 24 µM

CCCCCCCCCCCCCCCCCCN1CC(CO)OC(OC)C1 (stereo not shown) [Mo18]
ER, enhancement ratio (porcine skin [4]; permeant DF): 1.14
ER, enhancement ratio (porcine skin [4]; permeant IND): 1.95
ER, enhancement ratio (porcine skin [4]; permeant TH): 3.06

Cn1c(=O)c2[nH]cnc2n(C)c1=O [TH, theophylline]
logP [11]: −0.02
solubility at 48 h [6]: 20 ± 0.62 mg/mL
solubility in PBS ([8]; ref 25): 7.65 mg/mL (≈ 42.5 mM)

COc1ccc2c(c1)c(CC(=O)O)c(C)n2C(=O)c1ccc(Cl)cc1 [IND, indomethacin]
solubility at 48 h [6, 12]: 0.95 ± 0.51 mg/mL
amount of the model drug in the skin (porcine skin [7]): 32.43 ± 6.98 μg·gskin^−1
solubility in PBS ([8]; ref 26): 0.65 mg/mL (≈ 1.82 mM)
Papp at 48 h [9]: 0.104 ×10⁻⁶ cm/s
Jss, steady-state flux of the model drug (porcine skin [4]): 0.51 ± 0.09 µg·cm^−2·h^−1

CCCCCCCCCCCCOC(=O)CCCCCN.CCCCCCCCCCCCOC(=O)CCCCCNC(=O)O [Transkarbam 12]
IC50 ([10]; ref 29): 21 µM
